Experimental data: PubChem BioAssay AID1918940 (Molecular Pharmacology Branch, DTP, NCI, 2023)

Tested on: NCI-H211 complex spheroid viability
Experiment: Anticancer human tumor NCI-H211 cell line growth inhibition [LSD1];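 also: luminescent viability read after seven days of drug exposure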
Settings: for IC50: curve of first compound; for viability, T/C: stronger effect = lower value; active = viability on the fitted dose curve at most 10% of control; inactive = the rest
Text: Multicellular complex tumor spheroid response to LSD1 Inhibitor Iadademstat in combination with a variety of drugs and investigational agents in selected tumor cell lines
The current study was undertaken to assess response to LSD1 inhibitors in combination with standard-of-care drugs and investigational agents in solid tumor complex spheroid models as well as in the K-562 leukemia. Complex spheroids include a stromal component modeled by human endothelial cells (HUVEC) and fibroblasts modeled by human mesenchymal stem cells (MSCs). The concentration ranges selected for each drug and investigational agent were based upon clinically achievable concentrations if the clinical Cmax of the agent was known.
Compounds. The drugs and investigational agents used in this study are listed on Table 1. All of the agents used, including staurosporine (NSC755774) and gemcitabine (NSC613327), were obtained from the Developmental Therapeutics Program, NCI. FDA-approved anticancer drugs are available from the NCI at http://dtp.nci.nih.gov/branches/dscb/oncology_drugset_explanation.html. Drugs and investigational agents were >95% pure by proton nuclear magnetic resonance (NMR) and liquid chromatography/mass spectrometry (LC/MS). Stock solutions were prepared at 400x in DMSO, stored at -70 degrees C, and diluted in fresh medium prior to their use. The final concentration of DMSO in cell culture wells never exceeded 0.25% (v/v). The FDA-approved anticancer drug set is available from the Developmental Therapeutics Program at https://dtp.cancer.gov/organization/dscb/obtaining/available_plates.htm. All drugs and investigational agents were tested over a range starting from a high concentration at or near the clinical Cmax and decreasing in half-log increments. If the clinical Cmax for an agent had not been determined, the highest concentration tested was 10 microM.
Cell Lines. The patient-derived cancer cell (PDC) lines: 292921-168-R-J2-PDC, K24384-001-R-PDC, and 521955-158-R2-J5-PDC pancreatic carcinomas, 556581-035-R-J1 ovarian carcinoma, 324938-238-R-J1-PDC, 855422-203-R-J1-PDC and 883617-216-R-J1-PDC urothelial bladder carcinomas, 743489-274-T-PDC renal cell carcinoma, 138582-R-J1 Merkel cell tumor, K60290-347-R-J1 and K57222-313-R-J1-PDC glioblastomas, 653999-131-R-J2-PDC, LG0703-F948-PDC, and 349418-098-R-PDC non-small cell lung carcinomas, 885512-296-R-J2-PDC, 171881-019-R-J1-PDC breast carcinomas and 186277-243-T-J2-PDC and 233499-124-R-J2-PDC colon carcinomas were obtained from the NCI Patient-Derived Models Repository (PDMR, https://pdmr.cancer.gov). The established cell lines NCI/ADR-RES (RRID:CVCL_14520 and OVCAR-5 (RRID:CVCL_1628) ovarian carcinomas, 786-O (RRID:CVCL_1051) and A498 (RRID:CVCL_A498) renal cell carcinoma, NCI-H211 (ATCC, cat. CRL-5824; RRID:CVCL_1529), NCI-H196 (ATCC, cat. CRL-5823, RRID:CVCL_1509), SW 1271 (ATCC, cat. CRL-2177, RRID:CVCL_1716) and NCI-H1876 (ATCC, cat. CRL-5902, RRID:CVCL_1503) small cell lung carcinomas, MDA-MB-231 (RRID:CVCL_0062) and MDA-MB-468 (RRID:CVCL_0419)breast carcinomas (10-12). Pooled donor human umbilical vein endothelial cells (HUVEC, Lonza, cat. CC-2519) and human mesenchymal stem cells (hMSC, Lonza, cat. PT-2501) were purchased from Lonza (Walkersville, MD).
Cell Culture. All cells were maintained in an incubator at 37 degrees C and 5% CO2 with 95% humidity. The PDC lines were cultured according to standard operating procedures established by the NCI PDMR (https://pdmr.cancer.gov). Briefly all PDCs were thawed and cultured in Matrigel-coated flasks prepared with a working solution of 1X Ham's F-12 nutrient mix, without supplementation (Invitrogen, Waltham, MA, cat. 11765054), 100 U/mL penicillin-streptomycin (Invitrogen, cat. 15140122), and 2.5% Matrigel (Corning Inc., Corning, NY, cat. 354248) for the first three passages. […]

[1] = second compound 0.1 µM, first compound 0.000949 µM
[2] = second compound 0.1 µM, first compound 0.003 µM
[3] = second compound 0.1 µM, first compound 0.00949 µM
[4] = second compound 0.1 µM, first compound 0.03 µM
[5] = second compound 0.1 µM, first compound 0.0949 µM
[6] = second compound 0.1 µM, first compound 0.3 µM
[7] = second compound 0.316 µM, first compound 0.000949 µM
[8] = second compound 0.316 µM, first compound 0.003 µM
[9] = second compound 0.316 µM, first compound 0.00949 µM
[10] = second compound 0.316 µM, first compound 0.03 µM
[11] = second compound 0.316 µM, first compound 0.0949 µM
[12] = second compound 0.316 µM, first compound 0.3 µM
[13] = second compound 1 µM, first compound 0.000949 µM
[14] = second compound 1 µM, first compound 0.003 µM
[15] = second compound 1 µM, first compound 0.00949 µM
[16] = second compound 1 µM, first compound 0.03 µM
[17] = second compound 1 µM, first compound 0.0949 µM
[18] = second compound 1 µM, first compound 0.3 µM
[19] = second compound 3.16 µM, first compound 0.000949 µM
[20] = second compound 3.16 µM, first compound 0.003 µM
[21] = second compound 3.16 µM, first compound 0.00949 µM
[22] = second compound 3.16 µM, first compound 0.03 µM
[23] = second compound 3.16 µM, first compound 0.0949 µM
[24] = second compound 3.16 µM, first compound 0.3 µM
[25] = second compound 10 µM, first compound 0.000949 µM
[26] = second compound 10 µM, first compound 0.003 µM
[27] = second compound 10 µM, first compound 0.00949 µM
[28] = second compound 10 µM, first compound 0.03 µM
[29] = second compound 10 µM, first compound 0.0949 µM
[30] = second compound 10 µM, first compound 0.3 µM

CCc1c2c(nc3ccc(O)cc13)-c1cc3c(c(=O)n1C2)COC(=O)[C@]3(O)CC + NC1CC1c1ccc(-c2cccc(O)c2)cc1
active: viability, T/C [1] 3.24% | viability, T/C [2] 1.7% | viability, T/C [3] 2.13% | viability, T/C [4] 0.66% | viability, T/C [5] 0.05% | viability, T/C [6] 0.14% | viability, T/C [7] 3.2% | viability, T/C [8] 1.12% | viability, T/C [9] 1.18% | viability, T/C [10] 1.44% | viability, T/C [11] 0.05% | viability, T/C [12] 0.15% | viability, T/C [13] 3.18% | viability, T/C [14] 1.68% | viability, T/C [15] 1.11% | viability, T/C [16] 0.97% | viability, T/C [17] 0.04% | viability, T/C [18] 0.16% | viability, T/C [19] 2.71% | viability, T/C [20] 1.57% | viability, T/C [21] 1.28% | viability, T/C [22] 0.83% | viability, T/C [23] 0.05% | viability, T/C [24] 0.2% | viability, T/C [25] 2.86% | viability, T/C [26] 1.99% | viability, T/C [27] 1.75% | viability, T/C [28] 1.25% | viability, T/C [29] 0.17% | viability, T/C [30] 0.2%
< 0.949 nM: IC50 (second compound 0.1 µM) | IC50 (second compound 0.316 µM) | IC50 (second compound 1 µM) | IC50 (second compound 3.16 µM) | IC50 (second compound 10 µM)

Nc1ccn(C2OC(CO)C(O)C2(F)F)c(=O)n1 (stereo not given) + NC1CC1c1ccc(-c2cccc(O)c2)cc1
< 0.949 nM: IC50 (second compound 0.1 µM) | IC50 (second compound 0.316 µM) | IC50 (second compound 1 µM) | IC50 (second compound 3.16 µM) | IC50 (second compound 10 µM)
active: viability, T/C [1] 4.79% | viability, T/C [2] 3.12% | viability, T/C [3] 3.86% | viability, T/C [4] 4.15% | viability, T/C [5] 4.2% | viability, T/C [6] 3.74% | viability, T/C [7] 3.95% | viability, T/C [8] 4.1% | viability, T/C [9] 4.15% | viability, T/C [10] 3.65% | viability, T/C [11] 3.64% | viability, T/C [12] 3.81% | viability, T/C [13] 3.83% | viability, T/C [14] 4.15% | viability, T/C [15] 4.41% | viability, T/C [16] 3.58% | viability, T/C [17] 3.35% | viability, T/C [18] 4.53% | viability, T/C [19] 5.21% | viability, T/C [20] 4.54% | viability, T/C [21] 4.13% | viability, T/C [22] 4.09% | viability, T/C [23] 3.28% | viability, T/C [24] 4.65% | viability, T/C [25] 4.67% | viability, T/C [26] 4.95% | viability, T/C [27] 4.53% | viability, T/C [28] 5.27% | viability, T/C [29] 3.89% | viability, T/C [30] 4.22%

O=C(c1cc(Cc2n[nH]c(=O)c3ccccc23)ccc1F)N1CCN(C(=O)C2CC2)CC1 + NC1CC1c1ccc(-c2cccc(O)c2)cc1
active: viability, T/C (second compound 0.1 µM, first compound 0.316 µM) 7.94% | viability, T/C (second compound 0.1 µM, first compound 1 µM) 5.7% | viability, T/C (second compound 0.1 µM, first compound 3.16 µM) 6.16% | viability, T/C (second compound 0.1 µM, first compound 10 µM) 5.03% | viability, T/C (second compound 0.316 µM, first compound 0.316 µM) 8.13% | viability, T/C (second compound 0.316 µM, first compound 1 µM) 5.19% | viability, T/C (second compound 0.316 µM, first compound 3.16 µM) 4.85% | viability, T/C (second compound 0.316 µM, first compound 10 µM) 5.84% | viability, T/C (second compound 1 µM, first compound 0.316 µM) 7.69% | viability, T/C (second compound 1 µM, first compound 1 µM) 5.3% | viability, T/C (second compound 1 µM, first compound 3.16 µM) 6.41% | viability, T/C (second compound 1 µM, first compound 10 µM) 5.15% | viability, T/C (second compound 3.16 µM, first compound 0.316 µM) 8.34% | viability, T/C (second compound 3.16 µM, first compound 1 µM) 5.75% | viability, T/C (second compound 3.16 µM, first compound 3.16 µM) 6.96% | viability, T/C (second compound 3.16 µM, first compound 10 µM) 5.88% | viability, T/C (second compound 10 µM, first compound 0.316 µM) 8.43% | viability, T/C (second compound 10 µM, first compound 1 µM) 5.92% | viability, T/C (second compound 10 µM, first compound 3.16 µM) 6.26% | viability, T/C (second compound 10 µM, first compound 10 µM) 6.28%
inactive: viability, T/C (second compound 0.1 µM, first compound 0.0316 µM) 47.4% | viability, T/C (second compound 0.1 µM, first compound 0.1 µM) 25% | viability, T/C (second compound 0.316 µM, first compound 0.0316 µM) 48.9% | viability, T/C (second compound 0.316 µM, first compound 0.1 µM) 24.5% | viability, T/C (second compound 1 µM, first compound 0.0316 µM) 44% | viability, T/C (second compound 1 µM, first compound 0.1 µM) 22% | viability, T/C (second compound 3.16 µM, first compound 0.0316 µM) 49.2% | viability, T/C (second compound 3.16 µM, first compound 0.1 µM) 19.5% | viability, T/C (second compound 10 µM, first compound 0.0316 µM) 34.4% | viability, T/C (second compound 10 µM, first compound 0.1 µM) 17.2%
< 31.6 nM: IC50 (second compound 0.1 µM) | IC50 (second compound 0.316 µM) | IC50 (second compound 1 µM) | IC50 (second compound 3.16 µM) | IC50 (second compound 10 µM)
